Tested on: A204 cells
Experiment: Two-way combination growth inhibition, CellTiter-Glo cell viability, 72 h, Loewe additivity analysis
Assay type: cell-based
Conditions: FIG. 1a, compound crossed with itself (A×A, 1×1)
Method: Cell lines were purchased from American Type Culture Collection (ATCC), German Collection of Microorganisms and Cell Cultures (DSMZ), and Japanese Collection of Research Bioresources (JCRB). Each line was cultured in its recommended growth medium. Cell line A375sq2 was made in accordance with the procedure set forth in J. Med. Chem. 2009, 52, 6189-6192, footnote 13.
For Examples 1 to 71, cells were seeded into 384-well cell culture plates at initial densities ranging from 300 to 7500 cells per well in a 30 μL volume, depending on the growth rate of the cell line, so that adherent cells would remain at subconfluent densities by the end of the 72-hour treatment period. […] CellTiter-Glo® Luminescent Cell Viability Assay (Promega; Madison, Wis.) was used to determine the number of viable cells based on quantitation of the amount of ATP present, an indicator of metabolically active cells. Luminescence was measured with an EnVision® Multilabel Reader (Perkin Elmer; Waltham, Mass.) for each cell line at time zero (V0) before the addition of compounds, as well as after 72 hours of compound treatment (T72). Growth inhibition (GI) was calculated according to the following equations, where V72 was luminescence of DMSO control at 72 hours and T72 was luminescence of the compound-treated sample: if T72≥V0, then GI=100×(1−((T72−V0)/(V72−V0))); if T72<V0, then […]. […]

## CC(C)[C@@H](CS(=O)(=O)C(C)C)N1C(=O)[C@@](C)(CC(=O)O)C[C@H](c2cccc(Cl)c2)[C@H]1c1ccc(Cl)cc1 [Compound A, 2-((3R,5R,6S)-5-(3-chlorophenyl)-6-(4-chlorophenyl)-1-((S)-1-(isopropylsulfonyl)-3-methylbutan-2-yl)-3-methyl-2-oxopiperidin-3-yl)acetic acid]
  synergy score for the self-cross combination: 0.621
